Patent EP3800188A1, “SUBSTITUTED PYRAZOLOPYRIMIDINES AS IRAK4 INHIBITORS” (Bayer AG, priority 2019, dated 2021)

Key:
human IRAK4 = biological target: T1, human IRAK4 (Homo sapiens, UniProt Q9NWZ3); assay: Human IRAK4 kinase activity inhibition assay (IRAK4 TR-FRET assay); type: biochemical; conditions: 1 mM ATP, GST-human IRAK4, average or median values
T1 construct: GST (N); made in house; host or cells: baculovirus-infected Hi5 (BTI-TN-5B1-4) insect cells
T1 sequence (Q9NWZ3 1-460): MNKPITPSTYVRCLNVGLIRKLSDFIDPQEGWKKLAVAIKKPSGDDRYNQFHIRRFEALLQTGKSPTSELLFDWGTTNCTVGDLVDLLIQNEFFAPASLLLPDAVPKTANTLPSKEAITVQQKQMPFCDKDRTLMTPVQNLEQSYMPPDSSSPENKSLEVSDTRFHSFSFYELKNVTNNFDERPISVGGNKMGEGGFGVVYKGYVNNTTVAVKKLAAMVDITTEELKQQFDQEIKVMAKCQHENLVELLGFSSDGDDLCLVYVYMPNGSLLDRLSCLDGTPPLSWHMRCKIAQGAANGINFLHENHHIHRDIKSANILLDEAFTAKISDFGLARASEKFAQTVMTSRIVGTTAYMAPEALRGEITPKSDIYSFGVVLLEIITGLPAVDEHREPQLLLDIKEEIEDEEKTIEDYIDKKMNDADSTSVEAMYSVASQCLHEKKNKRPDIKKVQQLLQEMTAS
Outline: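 Signal was the 665/620 nm emission ratio from a europium anti-mouse-IgG, anti-phosphoserine antibody and streptavidin-XL665 complex formed over 1 h at 22°C. It was scaled between no-enzyme (100%) and no-compound (0%) wells. Beforehand, compounds (20 µM down to 0.073 nM, 11 points) sat 15 min with roughly 0.2 nM insect-cell-expressed GST-human IRAK4 before phosphorylation of a biotinylated peptide substrate.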

[1] = Metabolic stability in human liver microsomes; conditions: 1 µM compound; for CLblood, human microsomes: hepatic in vivo blood clearance calculated with well stirred liver model, '(stable)' given beside < 0.01; for Fmax, human microsomes: maximal oral bioavailability calculated with well stirred liver model, 0.5 mg/mL protein, '(stable)' given beside 100
Experimental: The in vitro metabolic stability of test compounds was determined by incubating them at 1 µM in a suspension liver microsomes in 100 mM phosphate buffer, pH7.4 (NaH2PO4 x H2O + Na2HPO4 x 2H2O) and at a protein concentration of 0.5 mg/mL at 37° C. The microsomes were activated by adding a co-factor mix containing 8 mM Glukose-6-Phosphat, 4 mM MgCl2, 0.5 mM NADP and 1 IU/mL G-6-P-Dehydrogenase in phosphate buffer, pH 7.4. The metabolic assay was started shortly afterwards by adding the test compound to the incubation at a final volume of 1 mL. Organic solvent in the incubations was limited to ≤0.01 % dimethylsulfoxide (DMSO) and ≤1% acetonitril. During incubation, the microsomal suspensions were continuously shaken at 580 rpm, and aliquots were taken at 2, 8, 16, 30, 45 and 60 min, to which equal volumes of cold methanol were immediately added. Samples were frozen at -20° C over night, subsequently centrifuged for 15 min at 3000 rpm and the supernatant was analyzed with an Agilent 1200 HPLC-system with LCMS/MS detection.
The half-life of a test compound was determined from the concentration-time plot. From the half-life the intrinsic clearances were calculated. Together with the additional parameters liver blood flow, specific liver weight and microsomal protein content the hepatic in vivo blood clearance (CL) and the maximal oral bioavailability (Fmax) were calculated using the "well stirred" liver model. The following parameter values were used: Liver blood flow - 1.32 L/h/kg (human), 2.1 L/h/kg (dog); specific liver weight - 21 g/kg (human), 39 g/kg (dog); microsomal protein content - 40 mg/g.

Row | SMILES | IC50 (human IRAK4) | CLblood, human microsomes [1] | Fmax, human microsomes [1]
1 | O=C1CN(C2CN(c3nc(N[C@H]4C[C@@H](O)C4)nc4c3cnn4-c3cccc(C(F)(F)F)c3)C2)CCN1 [Example I-115, 4-(1-{6-[(cis-3-hydroxycyclobutyl)amino]-1-[3-(trifluoromethyl)phenyl]-1H-pyrazolo[3,4-d]pyrimidin-4-yl}azetidin-3-yl)piperazin-2-one] | 7.51 nM | < 0.01 (stable) L/h/kg | 100 (stable) %
2 | CC1(N2CCOCC2)CN(c2nc(N[C@H]3C[C@H](S(C)(=O)=O)C3)nc3c2cnn3-c2cccc(C(F)F)c2)C1 [II-21, 1-[3-(difluoromethyl)phenyl]-4-[3-methyl-3-(morpholin-4-yl)azetidin-1-yl]-N-[trans-3-(methylsulfonyl)cyclobutyl]-1H-pyrazolo[3,4-d]pyrimidin-6-amine] | 1.8 nM | 0.07 L/h/kg | 95%
3 | CC(C)(O)CC1CN(c2nc(N[C@H]3C[C@H](S(C)(=O)=O)C3)nc3c2cnn3-c2cccc(OC(F)F)c2)C1 [IV-4, 1-[1-(1-[3-(difluoromethoxy)phenyl]-6-{[trans-3-(methylsulfonyl)cyclobutyl]amino}-1H-pyrazolo[3,4-d]pyrimidin-4-yl)azetidin-3-yl]-2-methylpropan-2-ol] | 4.78 nM | 0.55 L/h/kg | 58%
4 | O[C@@H]1CN(c2nc(N[C@H]3C[C@@H](O)C3)nc3c2cnn3-c2cccc(C(F)(F)F)c2)C[C@H]1O [Example I-85, (3R,4R)-1-(6-{[(1s,3S)-3-hydroxycyclobutyl]amino}-1-[3-(trifluoromethyl)phenyl]-1H-pyrazolo[3,4-d]pyrimidin-4-yl)pyrrolidine-3,4-diol] | 2.41 nM | < 0.01 (stable) L/h/kg | 100 (stable) %
5 | CC(C)(O)C1CN(c2nc(N[C@H]3C[C@H](S(C)(=O)=O)C3)nc3c2cnn3-c2cccc(C(F)(F)F)c2)C1 [Example I-83, 2-[1-(6-{[trans-3-(methylsulfonyl)cyclobutyl]amino}-1-[3-(trifluoromethyl)phenyl]-1H-pyrazolo[3,4-d]pyrimidin-4-yl)azetidin-3-yl]propan-2-ol] | 5.53 nM | 0.23 L/h/kg | 83%
6 | O=S1(=O)C[C@H](Nc2nc(N3CC(N4CCOCC4)C3)c3cnn(-c4cccc(C(F)(F)F)c4)c3n2)[C@@H](O)C1 (relative stereo) [Example I-37, rel-(3R,4R)-4-({4-[3-(morpholin-4-yl)azetidin-1-yl]-1-[3-(trifluoromethyl)phenyl]-1H-pyrazolo[3,4-d]pyrimidin-6-yl}amino)tetrahydrothiophene-3-ol 1,1-dioxide] | 11.5 nM | 0.05 L/h/kg | 97%
7 | CC(C)(N)C1CCN(c2nc(N[C@@H]3CNC(=O)C3)nc3c2cnn3-c2cccc(C(F)(F)F)c2)CC1 [Example I-47, (4S)-4-({4-[4-(2-aminopropan-2-yl)piperidin-1-yl]-1-[3-(trifluoromethyl)phenyl]-1H-pyrazolo[3,4-d]pyrimidin-6-yl}amino)pyrrolidin-2-one] | 0.861 nM | 0.17 L/h/kg | 87%
8 | O=C(CC1CN(c2nc(NC3CCS(=O)(=O)CC3)nc3c2cnn3-c2cccc(C(F)F)c2)C1)N1CCOCC1 [II-10, 2-(1-{1-[3-(difluoromethyl)phenyl]-6-[(1,1-dioxidotetrahydro-2H-thiopyran-4-yl)amino]-1H-pyrazolo[3,4-d]pyrimidin-4-yl}azetidin-3-yl)-1-(morpholin-4-yl)ethanone] | 4.31 nM | 0.42 L/h/kg | 68%
9 | CC(C)(O)CC1CN(c2nc(NC3CN(S(C)(=O)=O)C3)nc3c2cnn3-c2cccc(C(F)(F)F)c2)C1 [Example I-68, 2-methyl-1-[1-(6-{[1-(methylsulfonyl)azetidin-3-yl]amino}-1-[3-(trifluoromethyl)phenyl]-1H-pyrazolo[3,4-d]pyrimidin-4-yl)azetidin-3-yl]propan-2-ol] | 23 nM | 0.02 L/h/kg | 99%
10 | CS(=O)(=O)[C@H]1C[C@H](Nc2nc(N3CC[C@@H](O)C3)c3cnn(-c4cccc(C(F)F)c4)c3n2)C1 [II-34, (3R)-1-(1-[3-(difluoromethyl)phenyl]-6-{[(1r,3R)-3-(methylsulfonyl)cyclobutyl]amino}-1H-pyrazolo[3,4-d]pyrimidin-4-yl)pyrrolidin-3-ol] | 3.49 nM | 0.07 L/h/kg | 95%
11 | CC(C)(N)C1CN(c2nc(NC3CCS(=O)(=O)CC3)nc3c2cnn3-c2cccc(C(F)(F)F)c2)C1 [Example I-45, 4-[3-(2-aminopropan-2-yl)azetidin-1-yl]-N-(1,1-dioxidotetrahydro-2H-thiopyran-4-yl)-1-[3-(trifluoromethyl)phenyl]-1H-pyrazolo[3,4-d]pyrimidin-6-amine] | 5.1 nM | 0.05 L/h/kg | 96%
12 | CC(C)(O)C1CCN(c2nc(N[C@H]3C[C@](C)(O)C3)nc3c2cnn3-c2cccc(C(F)(F)F)c2)CC1 [Example I-91, trans-3-({4-[4-(2-hydroxypropan-2-yl)piperidin-1-yl]-1-[3-(trifluoromethyl)phenyl]-1H-pyrazolo[3,4-d]pyrimidin-6-yl}amino)-1-methylcyclobutanol] | 6.53 nM | 0.04 L/h/kg | 97%
13 | C[C@@]1(O)CCN(c2nc(N[C@H]3C[C@H](S(C)(=O)=O)C3)nc3c2cnn3-c2cccc(C(F)F)c2)C1 [II-35, (3R)-1-(1-[3-(difluoromethyl)phenyl]-6-{[(1r,3R)-3-(methylsulfonyl)cyclobutyl]amino}-1H-pyrazolo[3,4-d]pyrimidin-4-yl)-3-methylpyrrolidin-3-ol] | 6.8 nM | 0.10 L/h/kg | 93%
14 | O=C1CN(C2CN(c3nc(N[C@H]4C[C@H](O)C4)nc4c3cnn4-c3cccc(C(F)F)c3)C2)CCN1 [II-27, 4-(1-{1-[3-(difluoromethyl)phenyl]-6-[(trans-3-hydroxycyclobutyl)amino]-1H-pyrazolo[3,4-d]pyrimidin-4-yl}azetidin-3-yl)piperazin-2-one] | 4.75 nM | < 0.01 (stable) L/h/kg | 100 (stable) %
15 | C[C@]1(O)C[C@H](Nc2nc(N3CC(N4CCOCC4)C3)c3cnn(-c4cccc(C(F)(F)F)c4)c3n2)C1 [Example I-77, trans-1-methyl-3-({4-[3-(morpholin-4-yl)azetidin-1-yl]-1-[3-(trifluoromethyl)phenyl]-1H-pyrazolo[3,4-d]pyrimidin-6-yl}amino)cyclobutanol] | 4.8 nM | 0.36 L/h/kg | 72%
16 | CC(C)(O)CC1CN(c2nc(N[C@H]3C[C@H](S(C)(=O)=O)C3)nc3c2cnn3-c2cccc(C(F)F)c2)C1 [II-19, 1-[1-(1-[3-(difluoromethyl)phenyl]-6-{[trans-3-(methylsulfonyl)cyclobutyl]amino}-1H-pyrazolo[3,4-d]pyrimidin-4-yl)azetidin-3-yl]-2-methylpropan-2-ol] | 1.63 nM | 0.23 L/h/kg | 82%
17 | O[C@H]1CN(c2nc(N[C@H]3C[C@@]4(CCN4)C3)nc3c2cnn3-c2cccc(C(F)(F)F)c2)C[C@@H]1F [Example I-98, (3S,4S)-1-{6-[(4S,6s)-1-azaspiro[3.3]heptan-6-ylamino]-1-[3-(trifluoromethyl)phenyl]-1H-pyrazolo[3,4-d]pyrimidin-4-yl}-4-fluoropyrrolidin-3-ol] | 9.99 nM | < 0.01 (stable) L/h/kg | 100 (stable) %
18 | CS(=O)(=O)[C@H]1C[C@H](Nc2nc(N3C[C@@H](O)[C@H](F)C3)c3cnn(-c4cccc(C(F)F)c4)c3n2)C1 [II-16-3, (3R,4R)-1-(1-[3-(difluoromethyl)phenyl]-6-{[trans-3-(methanesulfonyl)cyclobutyl]-amino)-1H-pyrazolo[3,4-d]pyrimidin-4-yl)-4-fluoropyrrolidin-3-ol] | 1.62 nM | 0.08 L/h/kg | 94%
